According to BindingDB's records for doi:10.1016/j.bmcl.2011.10.120 (Amgen, 2011):

Assay: Antagonist activity at CXCR3 assessed as inhibition of ITAC-mediated cell migration in presence of 100% human serum
An IC50 of 292 nM was found for `CCS(=O)(=O)CCN(C(=O)Cc1ccc(C(F)(F)F)c(F)c1)[C@H](C)c1nc2ncccc2c(=O)n1-c1ccc(F)cc1` in this work.
An IC50 of 60 nM was found for `C[C@H](c1nc2ccccn2c(=O)c1-c1ccc(C#N)cc1)N(CC1CCS(=O)(=O)CC1)C(=O)Cc1ccc(OC(F)(F)F)cc1` in this work.
An IC50 of 39 nM was found for `C[C@H](c1nc2ncccc2c(=O)n1-c1ccc(C#N)cc1)N(CC1CCS(=O)(=O)CC1)C(=O)Cc1ccc(F)c(C(F)(F)F)c1` in this work.
An IC50 of 37 nM was found for `C[C@H](c1nc2ncccc2c(=O)n1-c1ccc(C#N)cc1)N(CC1CCS(=O)(=O)CC1)C(=O)Cc1ccc(C(F)(F)F)c(F)c1` in this work.
An IC50 of 90 nM was found for `C[C@H](c1nc2ncccc2c(=O)n1-c1ccc(F)cc1)N(CC1CCS(=O)(=O)CC1)C(=O)Cc1ccc(C(F)(F)F)c(F)c1` in this work.
An IC50 of 72 nM was found for `C[C@H](c1nc2ncccc2c(=O)n1-c1ccc(F)cc1)N(CC1CCS(=O)(=O)CC1)C(=O)Cc1ccc(F)c(C(F)(F)F)c1` in this work.
An IC50 of 254 nM was found for `CCS(=O)(=O)CCN(C(=O)Cc1ccc(F)c(C(F)(F)F)c1)[C@H](C)c1nc2ncccc2c(=O)n1-c1ccc(F)cc1` in this work.
An IC50 of 55 nM was found for `C[C@H](c1nc2ncccc2c(=O)n1-c1ccc(Cl)cc1)N(CC1CCS(=O)(=O)CC1)C(=O)Cc1ccc(C(F)(F)F)c(F)c1` in this work.
An IC50 of 45 nM was found for `C[C@H](c1nc2ncccc2c(=O)n1-c1ccc(Cl)cc1)N(CC1CCS(=O)(=O)CC1)C(=O)Cc1ccc(F)c(C(F)(F)F)c1` in this work.
An IC50 of 107 nM was found for `CCS(=O)(=O)CCN(C(=O)Cc1ccc(C(F)(F)F)c(F)c1)[C@H](C)c1nc2ncccc2c(=O)n1-c1ccc(Cl)cc1` in this work.
An IC50 of 102 nM was found for `CCS(=O)(=O)CCN(C(=O)Cc1ccc(F)c(C(F)(F)F)c1)[C@H](C)c1nc2ncccc2c(=O)n1-c1ccc(Cl)cc1` in this work.
An IC50 of 47 nM was found for `CCS(=O)(=O)CCN(C(=O)Cc1ccc(C(F)(F)F)c(F)c1)[C@H](C)c1nc2ncccc2c(=O)n1-c1ccc(C#N)cc1` [(R)-N-(1-(3-(4-cyanophenyl)-4-oxo-3,4-dihydropyrido[2,3-d]pyrimidin-2-yl)ethyl)-N-(2-(ethylsulfonyl)ethyl)-2-(3-fluoro-4-(trifluoromethyl)phenyl)acetamide] in this work.
